# Measurements taken from US6747058B1.
# How the values were obtained:
# [1] = cited from earlier work
# [2] = Pharmacokinetics (tmax) after intravenous and nebulizer inhalation administration, dog; assay type: in vivo; conditions: for Tmax at 14 day / Tmax: blood; for Tmax at 14 day: multiple dose (14 day)
# Experimental: (§1) Two animal species, rat and dog, are administered the formulation in a 14 day multiple dose inhalation study with a nebulizer. Results from the pharmacokinetic portion of the study indicate comparability between tmax values found for intravenous and inhaled delivery.
# [3] = Pharmacokinetics (tmax) after intravenous and nebulizer inhalation administration, rat; assay type: in vivo; conditions: blood; for Tmax: single dose; for Tmax at 14 day: multiple dose (14 day)
# Experimental: as §1
smiles,measurement,setting,value
CCCCCc1cc(O)c2c(c1)OC(C)(C)[C@@H]1CCC(C)=C[C@@H]21,solubility in water,[1],3000 µg/mL
same,App. calc. tmax,"[2]; IV, 1 mg/kg, single dose, tmax minus duration of exposure",1.9 min
same,Tmax at 14 day,"[2]; inhaled or intranasal, 2 mg/kg, inhalation, 2 mg/kg, 8 minutes exposure, read-out: Average tmax (converted)",10.2 min
same,Tmax at 14 day,"[2]; inhaled or intranasal, 2 mg/kg, inhalation, 2 mg/kg, 8 minutes exposure, tmax minus duration of exposure, read-out: App. calc. tmax (converted)",2.2 min
same,Tmax,"[2]; inhaled or intranasal, 2 mg/kg, inhalation, 2 mg/kg, 8 minutes exposure, single dose, read-out: Average tmax (converted)",15.6 min
same,Tmax,"[2]; inhaled or intranasal, 2 mg/kg, inhalation, 2 mg/kg, 8 minutes exposure, single dose, tmax minus duration of exposure, read-out: App. calc. tmax (converted)",7.6 min
same,Tmax at 14 day,"[2]; inhaled or intranasal, 5 mg/kg, inhalation, 5 mg/kg, 20 minutes exposure, read-out: Average tmax (converted)",22.2 min
same,Tmax at 14 day,"[2]; inhaled or intranasal, 5 mg/kg, inhalation, 5 mg/kg, 20 minutes exposure, tmax minus duration of exposure, read-out: App. calc. tmax (converted)",2.2 min
same,Tmax at 14 day,"[2]; inhaled or intranasal, 15 mg/kg, inhalation, 15 mg/kg, 60 minutes exposure, read-out: Average tmax (converted)",66 min
same,Tmax at 14 day,"[2]; inhaled or intranasal, 15 mg/kg, inhalation, 15 mg/kg, 60 minutes exposure, tmax minus duration of exposure, read-out: App. calc. tmax (converted)",6 min
same,Tmax,"[2]; iv, 1 mg/kg, IV, 1 mg/kg, single dose, read-out: Average tmax (converted)",1.8 min
same,Tmax,"[2]; iv, 1 mg/kg, IV, 1 mg/kg, single dose, tmax minus duration of exposure, read-out: App. calc. tmax (converted)",1.8 min
same,Tmax,"[3]; inhaled or intranasal, 0.5 mg/kg, inhalation, 0.5 mg/kg, 1.25 minutes exposure, read-out: Average tmax (converted)",5.7 min
same,Tmax,"[3]; inhaled or intranasal, 0.5 mg/kg, inhalation, 0.5 mg/kg, 1.25 minutes exposure, tmax minus duration of exposure, read-out: App. calc. tmax (converted)",4.45 min
same,Tmax at 14 day,"[3]; inhaled or intranasal, 2 mg/kg, inhalation, 2 mg/kg, 5 minutes exposure, read-out: Average tmax (converted)",6 min
same,Tmax at 14 day,"[3]; inhaled or intranasal, 2 mg/kg, inhalation, 2 mg/kg, 5 minutes exposure, tmax minus duration of exposure, read-out: App. calc. tmax (converted)",1 min
same,Tmax,"[3]; inhaled or intranasal, 4.6 mg/kg, inhalation, 4.6 mg/kg, 15 minutes exposure, read-out: Average tmax (converted)",33.3 min
same,Tmax,"[3]; inhaled or intranasal, 4.6 mg/kg, inhalation, 4.6 mg/kg, 15 minutes exposure, tmax minus duration of exposure, read-out: App. calc. tmax (converted)",18.3 min
same,Tmax at 14 day,"[3]; inhaled or intranasal, 5 mg/kg, inhalation, 5 mg/kg, 15 minutes exposure, read-out: Average tmax (converted)",17.4 min
same,Tmax at 14 day,"[3]; inhaled or intranasal, 5 mg/kg, inhalation, 5 mg/kg, 15 minutes exposure, tmax minus duration of exposure, read-out: App. calc. tmax (converted)",2.4 min
same,Tmax at 14 day,"[3]; inhaled or intranasal, 15 mg/kg, inhalation, 15 mg/kg, 45 minutes exposure, read-out: Average tmax (converted)",46.2 min
same,Tmax at 14 day,"[3]; inhaled or intranasal, 15 mg/kg, inhalation, 15 mg/kg, 45 minutes exposure, tmax minus duration of exposure, read-out: App. calc. tmax (converted)",1.2 min
same,Tmax,"[3]; iv, 2 mg/kg, IV, 2 mg/kg, read-out: Average tmax (converted)",2.1 min
same,Tmax,"[3]; iv, 2 mg/kg, IV, 2 mg/kg, tmax minus duration of exposure, read-out: App. calc. tmax (converted)",2.1 min
